Patent US20240382629A1, “HETEROBIVALENT AND HOMOBIVALENT AGENTS TARGETING FIBROBLAST ACTIVATION PROTEIN ALPHA AND/OR PROSTATE-SPECIFIC MEMBRANE ANTIGEN” (The Johns Hopkins University, priority 2021, published 2024)
Values joined by “and” are separate entries in the source; they are usually repeats but may differ in a detail not shown here. Equal values may be shown once.

Experiment: Biodistribution of representative compounds (Example 13), % ID/g in tissues of tumor-bearing mice
Format: in vivo, mouse
[1] = 30 min, 20 μCi per mouse (SA 6500 mCi/μmol)
[2] = 60 min + Blocker cold FAPI-04 (10 nmole, 6500-fold)
[3] = 60 min, 20 μCi per mouse (SA 6500 mCi/μmol)

N#C[C@@H]1CCCN1C(=O)CNC(=O)c1ccnc2ccc(OCCCNC(=O)[C@@H](CC(=O)O)NC(=O)[C@@H](CC(=O)O)NC(=O)c3ccc([18F])nc3)cc12 [[^18F]JHU1221785]
% ID/g Bladder (individual mouse) [1]: 0.93 % ID/g and 4.69 % ID/g
% ID/g Blood (individual mouse) [1]: 5.98 % ID/g and 3.90 % ID/g
% ID/g Brain (individual mouse) [1]: 0.14 % ID/g and 0.15 % ID/g
% ID/g Fat (individual mouse) [1]: 0.21 % ID/g and 0.19 % ID/g
% ID/g Femur (individual mouse) [1]: 2.78 % ID/g and 2.44 % ID/g
% ID/g Heart (individual mouse) [1]: 2.51 % ID/g and 2.01 % ID/g
% ID/g Kidney (individual mouse) [1]: 1.60 % ID/g and 3.33 % ID/g
% ID/g Large intestine (individual mouse) [1]: 0.58 % ID/g and 0.86 % ID/g
% ID/g Liver (individual mouse) [1]: 6.56 % ID/g and 8.08 % ID/g
% ID/g Lung (individual mouse) [1]: 2.77 % ID/g and 2.53 % ID/g
% ID/g Mean Bladder [1]: 2.81 % ID/g
% ID/g Mean Blood [1]: 4.94 % ID/g
% ID/g Mean Brain [1]: 0.14 % ID/g
% ID/g Mean Fat [1]: 0.20 % ID/g
% ID/g Mean Femur [1]: 2.61 % ID/g
% ID/g Mean Heart [1]: 2.26 % ID/g
% ID/g Mean Kidney [1]: 2.47 % ID/g
% ID/g Mean Large intestine [1]: 0.72 % ID/g
% ID/g Mean Liver [1]: 7.32 % ID/g
% ID/g Mean Lung [1]: 2.65 % ID/g
% ID/g Mean Muscle [1]: 0.96 % ID/g
% ID/g Mean Pancreas [1]: 2.31 % ID/g
% ID/g Mean Salivary gland [1]: 2.93 % ID/g
% ID/g Mean Small intestine [1]: 2.49 % ID/g
% ID/g Mean Spleen [1]: 1.00 % ID/g
% ID/g Mean Stomach [1]: 0.82 % ID/g
% ID/g Mean Tumor [1]: 1.24 % ID/g
% ID/g Muscle (individual mouse) [1]: 0.81 % ID/g and 1.12 % ID/g
% ID/g Pancreas (individual mouse) [1]: 1.92 % ID/g and 2.71 % ID/g
% ID/g Salivery gland (individual mouse) [1]: 2.81 % ID/g and 3.05 % ID/g
% ID/g Small intestine (individual mouse) [1]: 2.60 % ID/g and 2.38 % ID/g
% ID/g Spleen (individual mouse) [1]: 1.03 % ID/g and 0.97 % ID/g
% ID/g Stomach (individual mouse) [1]: 0.72 % ID/g and 0.92 % ID/g
% ID/g Tumor (individual mouse) [1]: 1.14 % ID/g
% ID/g Bladder (individual mouse) [2]: 0.23 % ID/g and 0.67 % ID/g
% ID/g Blood (individual mouse) [2]: 0.11 % ID/g and 9.26 % ID/g
% ID/g Brain (individual mouse) [2]: 0.02 % ID/g and 0.04 % ID/g
% ID/g Fat (individual mouse) [2]: 0.03 % ID/g and 0.21 % ID/g
% ID/g Femur (individual mouse) [2]: 1.52 % ID/g and 1.50 % ID/g
% ID/g Heart (individual mouse) [2]: 0.06 % ID/g and 0.07 % ID/g
% ID/g Kidney (individual mouse) [2]: 0.41 % ID/g and 0.51 % ID/g
% ID/g Large intestine (individual mouse) [2]: 0.08 % ID/g and 0.33 % ID/g
% ID/g Liver (individual mouse) [2]: 9.42 % ID/g and 10.36 % ID/g
% ID/g Lung (individual mouse) [2]: 0.13 % ID/g and 0.20 % ID/g
% ID/g Mean Bladder [2]: 0.43 % ID/g
% ID/g Mean Blood [2]: 4.68 % ID/g
% ID/g Mean Brain [2]: 0.03 % ID/g
% ID/g Mean Fat [2]: 0.12 % ID/g
% ID/g Mean Femur [2]: 1.51 % ID/g
% ID/g Mean Heart [2]: 0.07 % ID/g
% ID/g Mean Kidney [2]: 0.46 % ID/g
% ID/g Mean Large intestine [2]: 0.20 % ID/g
% ID/g Mean Liver [2]: 9.69 % ID/g
% ID/g Mean Lung [2]: 0.17 % ID/g
% ID/g Mean Muscle [2]: 0.06 % ID/g
% ID/g Mean Pancreas [2]: 0.13 % ID/g
% ID/g Mean Salivary gland [2]: 0.05 % ID/g
% ID/g Mean Small intestine [2]: 3.54 % ID/g
% ID/g Mean Spleen [2]: 0.16 % ID/g
% ID/g Mean Stomach [2]: 0.16 % ID/g
% ID/g Mean Tumor [2]: 0.10 % ID/g
% ID/g Muscle (individual mouse) [2]: 0.04 % ID/g and 0.07 % ID/g
% ID/g Pancreas (individual mouse) [2]: 0.05 % ID/g and 0.22 % ID/g
% ID/g Salivery gland (individual mouse) [2]: 0.04 % ID/g and 0.06 % ID/g
% ID/g Small intestine (individual mouse) [2]: 0.88 % ID/g and 6.19 % ID/g
% ID/g Spleen (individual mouse) [2]: 0.08 % ID/g and 0.25 % ID/g
% ID/g Stomach (individual mouse) [2]: 0.09 % ID/g and 0.23 % ID/g
% ID/g Tumor (individual mouse) [2]: 0.08 % ID/g and 0.11 % ID/g
% ID/g Bladder (individual mouse) [3]: 0.76 % ID/g and 0.92 % ID/g
% ID/g Blood (individual mouse) [3]: 2.56 % ID/g and 4.57 % ID/g
% ID/g Brain (individual mouse) [3]: 0.09 % ID/g and 0.12 % ID/g
% ID/g Fat (individual mouse) [3]: 0.22 % ID/g and 0.12 % ID/g
% ID/g Femur (individual mouse) [3]: 2.06 % ID/g and 2.07 % ID/g
% ID/g Heart (individual mouse) [3]: 1.38 % ID/g and 1.73 % ID/g
% ID/g Kidney (individual mouse) [3]: 0.79 % ID/g and 1.04 % ID/g
% ID/g Large intestine (individual mouse) [3]: 0.61 % ID/g and 0.78 % ID/g
% ID/g Liver (individual mouse) [3]: 7.41 % ID/g and 8.27 % ID/g
% ID/g Lung (individual mouse) [3]: 1.70 % ID/g and 2.65 % ID/g
% ID/g Mean Bladder [3]: 0.84 % ID/g
% ID/g Mean Blood [3]: 3.57 % ID/g
% ID/g Mean Brain [3]: 0.10 % ID/g
% ID/g Mean Fat [3]: 0.22 % ID/g
% ID/g Mean Femur [3]: 2.07 % ID/g
% ID/g Mean Heart [3]: 1.56 % ID/g
% ID/g Mean Kidney [3]: 0.91 % ID/g
% ID/g Mean Large intestine [3]: 0.69 % ID/g
% ID/g Mean Liver [3]: 7.84 % ID/g
% ID/g Mean Lung [3]: 2.18 % ID/g
% ID/g Mean Muscle [3]: 0.98 % ID/g
% ID/g Mean Pancreas [3]: 2.07 % ID/g
% ID/g Mean Salivary gland [3]: 3.45 % ID/g
% ID/g Mean Small intestine [3]: 1.83 % ID/g
% ID/g Mean Spleen [3]: 0.93 % ID/g
% ID/g Mean Stomach [3]: 0.71 % ID/g
% ID/g Mean Tumor [3]: 2.23 % ID/g
% ID/g Muscle (individual mouse) [3]: 1.03 % ID/g and 0.69 % ID/g
% ID/g Pancreas (individual mouse) [3]: 1.96 % ID/g and 2.17 % ID/g
% ID/g Salivery gland (individual mouse) [3]: 2.17 % ID/g and 4.73 % ID/g
% ID/g Small intestine (individual mouse) [3]: 1.65 % ID/g and 2.01 % ID/g
% ID/g Spleen (individual mouse) [3]: 0.78 % ID/g and 1.09 % ID/g
% ID/g Stomach (individual mouse) [3]: 0.60 % ID/g and 0.81 % ID/g
% ID/g Tumor (individual mouse) [3]: 2.99 % ID/g and 1.47 % ID/g
